Assay results reported in US20210341378A1, “HIGH-CONTENT IMAGING OF MICROFLUIDIC DEVICES” (priority 2019, published 2021).

Columns and labels:
[1] = test system: microfluidic devices seeded with human liver cells; assay: Albumin secretion (ELISA), human Liver-Chip; assay type: cell-based
Text: Prior to cell seeding, microfluidic devices, in this case S-I Chips (Emulate, Inc. Boston, Mass., USA), were functionalized using Emulate's proprietary protocols and reagents (ER™), including those described herein. After surface functionalization, both channels of the microfluidic device were coated with species-specific extracellular matrices (ECM). For the human bound microfluidic device, a mixture of collagen type I (Corning, Corning, N.Y., USA) and fibronectin, e.g. bovine, (Gibco) was used; for the rat bound microfluidic devices a mixture of collagen type IV, e.g. human placenta, (Sigma-Aldrich, St. Louis, Mo., USA) and fibronectin (Gibco) was used; for the dog bound microfluidic devices a mixture of collagen I (Corning), collagen type IV (Sigma-Aldrich), and fibronectin (Gibco) was used. […] For the dual-cell culture model (hepatocytes and endothelial cells), the LSECs were seeded at a concentration of 2-4 million cells/mL in the lower vascular channel. […] After cell seeding, the upper channel of the microfluidic device was maintained in William's E Medium (WEM) containing Glutamax (Gibco), ITS+ (Corning), dexamethasone (Sigma-Aldrich), ascorbic acid (Sigma-Aldrich), fetal bovine serum (FBS) (Sigma-Aldrich), and Penicillin/Streptomycin (Sigma-Aldrich). The vascular channel of the microfluidic device was maintained with species-specific endothelial media (Emulate, Inc.). Two days after seeding, the microfluidic devices were connected to the Human Emulation System™ (Emulate, Inc.), as described in part herein, and both of the microfluidic device channels were perfused at 30 μL/hr to provide a continuous supply of fresh media for the duration of the experiments. Albumin secretion from the upper channel was quantified using ELISA kits for human, rat, and dog models effluent samples (human and rat: Abcam; dog: Immunology Consultants Laboratory, Inc., Portland, Oreg., USA) and the assays were performed according to the protocol provided by each vendor.

[2] = test system: microfluidic devices seeded with rat liver cells; assay: Albumin secretion (ELISA), rat Liver-Chip; assay type: cell-based; conditions: FIAU 1, 10 and 30 μM, rat chip
Text: Prior to cell seeding, microfluidic devices, in this case S-I Chips (Emulate, Inc. Boston, Mass., USA), were functionalized using Emulate's proprietary protocols and reagents (ER™), including those described herein. After surface functionalization, both channels of the microfluidic device were coated with species-specific extracellular matrices (ECM). For the human bound microfluidic device, a mixture of collagen type I (Corning, Corning, N.Y., USA) and fibronectin, e.g. bovine, (Gibco) was used; for the rat bound microfluidic devices a mixture of collagen type IV, e.g. human placenta, (Sigma-Aldrich, St. Louis, Mo., USA) and fibronectin (Gibco) was used; for the dog bound microfluidic devices a mixture of collagen I (Corning), collagen type IV (Sigma-Aldrich), and fibronectin (Gibco) was used. […] For the dual-cell culture model (hepatocytes and endothelial cells), the LSECs were seeded at a concentration of 2-4 million cells/mL in the lower vascular channel. […] Albumin secretion from the upper channel was quantified using ELISA kits for human, rat, and dog models effluent samples (human and rat: Abcam; dog: Immunology Consultants Laboratory, Inc., Portland, Oreg., USA) and the assays were performed according to the protocol provided by each vendor.

[3] = test system: microfluidic devices seeded with human liver cells; assay: Release of DILI biomarkers (miR-122, alpha-GST, keratin 18), human Liver-Chip; assay type: cell-based
Text: Exemplary Biomarker, e.g. DILI: Keratin 18 levels were quantified in human model effluent samples from both the hepatocyte and vascular channels using the M65 EpiDeath CK18 ELISA Kit (DiaPharma, Detroit, Mich., USA). The assay was run following the vendor protocol using a standard curve ranging from 0-5,000 U/L. Additionally, a standard curve ranging from 0-500 U/L was generated independently for quality control.
Exemplary Biomarker, e.g. DILI: Alpha Glutathione S-Transferase (α-GST) levels were quantified in human model effluent samples from the upper channel using an ELISA kit (DiaPharma). The assay was run following the vendor protocol using a standard curve ranging from 0-64 μg/L. Additionally, a standard curve ranging from 0-50 μg/L was generated independently for quality control.
Exemplary Biomarker, e.g. DILI: Mir-122: Isolation of micro-RNAs was performed on upper and lower chamber eluates using Qiagen's (Hilden, Germany) miRNA isolation kit for serum and plasma. A total volume of 50 μL was used for isolation. Isolation was performed according to manufacturer's protocol using a 56.5 pM oligonucleotide spike-in control. Samples were eluted with 14 μL RNase-free water. Reverse transcription was performed using Thermo Fisher Scientific's TaqMan™ MicroRNA Reverse Transcription Kit according to the manufacturer's protocol. A total reaction volume of 15 μL was used. Real-time PCR was performed using Thermo Fisher Scientific's TaqMan™ Micro-RNA Assays according to manufacturer's protocol. A total reaction volume of 10 μL was used. Normalized rrCt was used for fold-change analysis.

[4] = test system: microfluidic devices seeded with human liver cells; assay: Cytokine release (IL-6, MCP-1, IP-10) from vascular channel, human Liver-Chip; assay type: cell-based; conditions: for cytokines/chemokines including IP-10: treated Liver-Chips (discussion); for release of IL-6 / release of MCP-1: 14 days
Procedure: Cytokines: Release of IL-6, MCP-1, and IP-10 from the vascular channel was quantified using U-PLEX biomarker human assays (Meso Scale Diagnostics, Rockville, Md., USA) and the assays were performed according to the protocol provided by the vendor.

[5] = test system: microfluidic devices seeded with human liver cells; assay: Lipid accumulation (Nile red / AdipoRed), human Liver-Chip; assay type: cell-based
Text: (§1) Microfluidic devices seeded with liver cells were stained in the upper channel with 5(6)-Carboxy-2′,7′-dichlorofluorescein diacetate (CDFDA) (ThermoFisher) to visualize bile canaliculi and MRP2 activity, cholyl-lysyl-fluorescein (CLF) (Corning) to visualize bile canaliculi and BSEP activity, Nile red (ThermoFisher) or AdipoRed (Lonza) to visualize lipid droplet accumulation, Tetramethylrhodamine, methyl ester (TMRM) (ThermoFisher) to visualize active mitochondria, and CellROX® (ThermoFisher) to visualize cellular oxidative stress. Each staining solution was prepared in blank medium or compound dosing medium and added to the upper channel, incubated for 15 minutes at 37° C., and washed three times with medium. The stained microfluidic devices were imaged using a specific filter, and were de-blurred with Olympus cellSens software. Using ImageJ-Fiji, the fluorescent channel images were histogram adjusted to remove background, followed by fluorescence quantification using the Integrated Density calculation function.
(§2) The stained microfluidic devices were imaged using the TRITC filter, and were de-blurred with Olympus cellSens software. Using ImageJ-Fiji, the fluorescent channel images were histogram adjusted to remove background, followed by fluorescence quantification using the Integrated Density calculation function. N=5 FOVs per microfluidic device were analyzed for conditions: vehicle (0.1% DMSO), FIAU dosing groups, and MTX dosing groups.

[6] = test system: microfluidic devices seeded with rat liver cells; assay: Lipid accumulation (Nile red), rat Liver-Chip; assay type: cell-based; conditions: FIAU 1, 10 and 30 μM for 10 days
Text: as §1, with “The stained microfluidic devices were imaged using a specific filter, and were de-blurred with Olympus cellSens software.” left out
as §2

[7] = cited from earlier work
[8] = test system: stellate cells; assay: Stellate cell activation (alpha-SMA), human Liver-Chip; assay type: cell-based
Procedure: Microfluidic devices seeded with liver cells and static sandwich plate cultures were fixed with 4% paraformaldehyde for 15 minutes at room temperature, washed with PBS, and permeabilized (saponin 1% with 10% serum in PBS). Blocking and incubation with the primary antibodies (overnight in PBS containing 1% BSA or PBS containing 10% serum and 1% BSA) was followed by a two-hour incubation with secondary antibodies (Cell Signaling, Danvers, Mass., USA) in the same blocking buffer. Immunostaining was performed with specific primary antibodies (anti-MRP2, anti-stabilin-1, anti-BSEP, anti-α-SMA, anti-CD68; Abcam, Cambridge, Mass., USA) and images were acquired with either an Olympus fluorescence microscope (IX83) or Zeiss confocal microscope (AxiovertZ1 LSM880).
The number of CD68- or α-SMA-positive cells in the vascular channel in each group was counted in each field of view ([…]) and quantified.
The fluorescent channel (588) was first background subtracted and processed using the median filter of Image J. After processing, the signal was thresholded using adaptive thresholding function of Image J (Otsu method) to extract fluorescent regions and to measure the relative intensity of the fluorescent signal. N=4 to 6 FOVs per microfluidic device from each microfluidic device were analyzed. […]

[9] = some patient populations; cited from earlier work
[10] = test system: microfluidic devices seeded with human liver cells; assay: ROS (CellROX) live staining, human Liver-Chip; assay type: cell-based; conditions: TAK-875, human chip
[11] = molecular target: T1, MRP2 (Homo sapiens, UniProt Q92887); assay: Biliary efflux of CDFDA (MRP2 activity), human Liver-Chip; assay type: cell-based; conditions: TAK-875 3, 10, 30 μM
T1 construct: Primary rat, dog or human hepatocytes were cultured in the upper parenchymal channel; endogenous in cells; host or cells: primary human hepatocytes in a microfluidic Liver-Chip
Procedure: Both a brightfield and a fluorescence image was taken from each field of view. […] CLF-labeled regions that most likely to corresponded to bile canaliculi were automatically identified based on geometric criteria and retained only if they co-localized with a bile canaliculi signal in channel 1. […] These criteria were determined empirically using a small test set of images and then applied to images for the analysis. […] The data for treated and control samples were quantified by computing the area percentage of CLF-labeled bile canaliculi within each field of view (FOV).

[12] = test system: mitochondrial membrane potential; assay: TMRM staining (mitochondrial membrane potential), human Liver-Chip; assay type: cell-based; conditions: TAK-875 3, 10, 30 μM, 8 or 15 days
Text: as §1

[13] = daily 1, 10 and 30 μM for 7 days, quadruple-cell chip

T1 sequence (Q92887 whole entry): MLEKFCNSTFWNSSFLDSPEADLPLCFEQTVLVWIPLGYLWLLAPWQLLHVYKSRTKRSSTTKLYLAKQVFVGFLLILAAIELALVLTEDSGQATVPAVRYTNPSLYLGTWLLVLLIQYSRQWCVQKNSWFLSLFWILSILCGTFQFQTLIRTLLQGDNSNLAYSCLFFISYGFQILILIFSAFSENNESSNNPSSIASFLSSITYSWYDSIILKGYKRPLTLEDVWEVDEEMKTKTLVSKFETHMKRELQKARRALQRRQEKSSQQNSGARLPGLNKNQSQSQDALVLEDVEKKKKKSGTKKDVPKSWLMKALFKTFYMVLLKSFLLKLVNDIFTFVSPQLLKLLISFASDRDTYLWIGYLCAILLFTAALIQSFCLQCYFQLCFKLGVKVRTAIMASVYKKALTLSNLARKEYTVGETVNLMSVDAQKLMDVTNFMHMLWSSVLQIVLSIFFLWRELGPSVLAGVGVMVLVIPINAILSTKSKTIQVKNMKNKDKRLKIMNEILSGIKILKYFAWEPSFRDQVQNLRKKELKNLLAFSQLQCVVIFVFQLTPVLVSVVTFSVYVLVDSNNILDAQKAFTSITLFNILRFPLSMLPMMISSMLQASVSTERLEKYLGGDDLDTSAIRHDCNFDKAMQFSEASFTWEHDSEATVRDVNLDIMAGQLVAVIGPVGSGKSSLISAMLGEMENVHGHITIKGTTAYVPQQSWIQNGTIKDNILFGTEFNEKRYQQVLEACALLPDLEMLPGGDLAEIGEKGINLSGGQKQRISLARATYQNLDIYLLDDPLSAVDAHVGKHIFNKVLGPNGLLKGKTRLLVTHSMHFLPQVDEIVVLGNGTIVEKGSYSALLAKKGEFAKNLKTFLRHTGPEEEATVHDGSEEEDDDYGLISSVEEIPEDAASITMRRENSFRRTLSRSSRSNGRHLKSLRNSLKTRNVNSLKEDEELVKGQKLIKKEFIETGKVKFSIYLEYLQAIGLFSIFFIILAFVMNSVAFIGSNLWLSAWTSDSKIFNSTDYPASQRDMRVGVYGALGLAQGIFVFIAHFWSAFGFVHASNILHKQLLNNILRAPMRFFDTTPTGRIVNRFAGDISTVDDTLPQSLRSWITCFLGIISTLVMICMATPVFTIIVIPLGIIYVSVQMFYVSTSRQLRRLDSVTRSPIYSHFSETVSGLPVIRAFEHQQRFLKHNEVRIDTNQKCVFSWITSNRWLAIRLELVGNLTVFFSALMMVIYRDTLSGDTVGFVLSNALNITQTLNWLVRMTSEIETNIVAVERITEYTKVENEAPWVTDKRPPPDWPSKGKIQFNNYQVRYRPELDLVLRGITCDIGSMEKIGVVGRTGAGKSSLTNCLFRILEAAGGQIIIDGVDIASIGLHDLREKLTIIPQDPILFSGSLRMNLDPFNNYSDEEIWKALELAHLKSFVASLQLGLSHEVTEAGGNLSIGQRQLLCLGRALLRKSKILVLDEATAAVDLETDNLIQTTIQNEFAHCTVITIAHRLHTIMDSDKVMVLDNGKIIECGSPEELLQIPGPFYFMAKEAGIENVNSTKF

## O=c1[nH]c(=O)n([C@@H]2O[C@H](CO)[C@@H](O)[C@@H]2F)cc1I [FIAU, fialuridine]
[1]; FIAU, human quadruple-cell chip, 7 days
  concentrations giving dose-dependent decline in albumin secretion: ≥ 1000 nM
[2]
  hepatocyte function (albumin secretion): no effects
[3]; FIAU 10 days, human chip
  keratin 18 (K-18): release
  miR122: release
  α-GST: release
[4]
  cytokines/chemokines including IP-10: release
[5]; daily 1, 10 and 30 μM for 10 days, human quadruple-cell chip
  lipid accumulation: dose-dependent increase
[6]
  lipid accumulation: no effects
[7]; Phase II clinical trials
  patients with liver failure and deaths: 5/15

## CN(Cc1cnc2nc(N)nc(N)c2n1)c1ccc(C(=O)N[C@@H](CCC(=O)O)C(=O)O)cc1 [MTX, Methotrexate]
[1]; MTX 1, 10 and 30 μM for 7 days, quadruple-cell chip
  albumin secretion: no abnormalities
[4]; MTX treatment, 1 day, vascular channel
  IP-10: increases
[4]
  cytokines/chemokines including IP-10: release
[5]; [13]
  lipid accumulation detected by Nile red: microscopic evidence of lipid accumulation
[8]; [13]
  expression of α-SMA (stellate cell activation): increased expression
[9]
  maximal plasma concentrations at which liver injury occurs in humans: ~1 µM

## Cc1cc(OCCCS(C)(=O)=O)cc(C)c1-c1cccc(COc2ccc3c(c2)OC[C@H]3CC(=O)O)c1 [TAK-875]
[1]; TAK-875 30 μM, 14 days
  albumin production: decreased
[10]
  formation of ROS: increase
[3]; TAK-875 30 μM, 14 days
  K18: increased release
[4]; TAK-875 10 μM
  release of IL-6: significant release
  release of MCP-1: significant release
[4]; TAK-875 30 μM
  release of IL-6: not observed
  release of MCP-1: not observed
[5]; TAK-875, end of the 2-week treatment
  lipid droplet accumulation: detected
[8]; TAK-875 10 or 30 uM for 15 days
  % aSMA positive area from the vascular channel: Not significant
[11]
  biliary efflux of the MRP2 substrate CDFDA: dose-dependent decrease
[12]
  mitochondrial potential sensitive dye TMRM: dose-related and time-dependent redistribution
[7]; human, in vivo
  incidence of treatment-related elevations in transaminases: 2.7%
